Literature values, collected in patent US20240065975A1, “OTF COMPOUND CONNECTED BY SEWING” (LTS LOHMANN THERAPIE-SYSTEME AG, priority 2021, published 2024).

Conditions: compared with (R)-ketamine

CNC1(c2ccccc2Cl)CCCCC1=O (racemic) [(S)-ketamine, (S)-(±)-2-(2-chlorophenyl)-2-(methylamino)cyclohexan-1-one]
analgesic and anaesthetic potency relative to the (R) form: approximately three times higher
